Data: PubChem BioAssay AID1919000 (Molecular Pharmacology Branch, DTP, NCI, 2023)
pIC50: −log10 of the molar value.

System: 653999-131-R-J2-PDC complex spheroids, growth % test/control
Experiment: Anticancer human tumor 653999-131-R-J2-PDC patient-derived lung adenocarcinoma cell line growth inhibition [AhR]
Settings: for pIC50: curve of first compound; for viability, T/C: stronger effect = lower value
In short: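 Agents were dosed in half-log steps down from roughly clinical Cmax, or from 10 microM where Cmax was unknown, alone and with AhR antagonists. Read-out: percent test/control growth of tumor spheroids containing HUVEC and MSC stromal cells.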

[1] = second compound 0.1 µM, first compound 0.0316 µM
[2] = second compound 0.1 µM, first compound 0.1 µM
[3] = second compound 0.1 µM, first compound 0.316 µM
[4] = second compound 0.1 µM, first compound 1 µM
[5] = second compound 0.1 µM, first compound 3.16 µM
[6] = second compound 0.1 µM, first compound 10 µM
[7] = second compound 0.316 µM, first compound 0.0316 µM
[8] = second compound 0.316 µM, first compound 0.1 µM
[9] = second compound 0.316 µM, first compound 0.316 µM
[10] = second compound 0.316 µM, first compound 1 µM
[11] = second compound 0.316 µM, first compound 3.16 µM
[12] = second compound 0.316 µM, first compound 10 µM
[13] = second compound 1 µM, first compound 0.0316 µM
[14] = second compound 1 µM, first compound 0.1 µM
[15] = second compound 1 µM, first compound 0.316 µM
[16] = second compound 1 µM, first compound 1 µM
[17] = second compound 1 µM, first compound 3.16 µM
[18] = second compound 1 µM, first compound 10 µM
[19] = second compound 3.16 µM, first compound 0.0316 µM
[20] = second compound 3.16 µM, first compound 0.1 µM
[21] = second compound 3.16 µM, first compound 0.316 µM
[22] = second compound 3.16 µM, first compound 1 µM
[23] = second compound 3.16 µM, first compound 3.16 µM
[24] = second compound 3.16 µM, first compound 10 µM
[25] = second compound 10 µM, first compound 0.0316 µM
[26] = second compound 10 µM, first compound 0.1 µM
[27] = second compound 10 µM, first compound 0.316 µM
[28] = second compound 10 µM, first compound 1 µM
[29] = second compound 10 µM, first compound 3.16 µM
[30] = second compound 10 µM, first compound 10 µM
[31] = second compound 0.1 µM, first compound 0.00949 µM
[32] = second compound 0.1 µM, first compound 0.03 µM
[33] = second compound 0.1 µM, first compound 0.0949 µM
[34] = second compound 0.1 µM, first compound 0.3 µM
[35] = second compound 0.316 µM, first compound 0.00949 µM
[36] = second compound 0.316 µM, first compound 0.03 µM
[37] = second compound 0.316 µM, first compound 0.0949 µM
[38] = second compound 0.316 µM, first compound 0.3 µM
[39] = second compound 1 µM, first compound 0.00949 µM
[40] = second compound 1 µM, first compound 0.03 µM
[41] = second compound 1 µM, first compound 0.0949 µM
[42] = second compound 1 µM, first compound 0.3 µM
[43] = second compound 3.16 µM, first compound 0.00949 µM
[44] = second compound 3.16 µM, first compound 0.03 µM
[45] = second compound 3.16 µM, first compound 0.0949 µM
[46] = second compound 3.16 µM, first compound 0.3 µM
[47] = second compound 10 µM, first compound 0.00949 µM
[48] = second compound 10 µM, first compound 0.03 µM
[49] = second compound 10 µM, first compound 0.0949 µM
[50] = second compound 10 µM, first compound 0.3 µM
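Also: spheroids exposed to agents for seven days.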
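For viability, T/C in this document: 100% = DMSO vehicle control viability.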

SMILES: CC1(C)CCC(CN2CCN(c3ccc(C(=O)NS(=O)(=O)c4ccc(NCC5CCOCC5)c([N+](=O)[O-])c4)c(Oc4cnc5[nH]ccc5c4)c3)CC2)=C(c2ccc(Cl)cc2)C1 + Cc1cncc(-c2nc(NCCc3c[nH]c4ccccc34)c3ncn(C(C)C)c3n2)c1
- pIC50 (second compound 0.1 µM): < 5.00
- pIC50 (second compound 0.316 µM): < 5.00
- pIC50 (second compound 1 µM): < 5.00
- pIC50 (second compound 3.16 µM): < 5.00
- pIC50 (second compound 10 µM): < 5.00
- viability, T/C [1]: 92.8%
- viability, T/C [2]: 93.8%
- viability, T/C [3]: 89%
- viability, T/C [4]: 101%
- viability, T/C [5]: 94.2%
- viability, T/C [6]: 85.8%
- viability, T/C [7]: 97.8%
- viability, T/C [8]: 90.7%
- viability, T/C [9]: 94.8%
- viability, T/C [10]: 97.8%
- viability, T/C [11]: 116%
- viability, T/C [12]: 83%
- viability, T/C [13]: 103%
- viability, T/C [14]: 108%
- viability, T/C [15]: 109%
- viability, T/C [16]: 102%
- viability, T/C [17]: 116%
- viability, T/C [18]: 105%
- viability, T/C [19]: 105%
- viability, T/C [20]: 105%
- viability, T/C [21]: 109%
- viability, T/C [22]: 115%
- viability, T/C [23]: 104%
- viability, T/C [24]: 91.8%
- viability, T/C [25]: 59.4%
- viability, T/C [26]: 61.9%
- viability, T/C [27]: 59.5%
- viability, T/C [28]: 71.3%
- viability, T/C [29]: 74.1%
- viability, T/C [30]: 62.5%

SMILES: CC1COCCN1c1cc(C2(S(C)(=N)=O)CC2)nc(-c2ccnc3[nH]ccc23)n1 (stereo not given) + Cc1cncc(-c2nc(NCCc3c[nH]c4ccccc34)c3ncn(C(C)C)c3n2)c1
- pIC50 (second compound 0.1 µM): 5.07
- pIC50 (second compound 0.316 µM): 5.01
- pIC50 (second compound 1 µM): < 5.00
- pIC50 (second compound 3.16 µM): 5.01
- pIC50 (second compound 10 µM): 5.57
- viability, T/C [1]: 105%
- viability, T/C [2]: 102%
- viability, T/C [3]: 94.7%
- viability, T/C [4]: 104%
- viability, T/C [5]: 86.1%
- viability, T/C [6]: 43.7%
- viability, T/C [7]: 103%
- viability, T/C [8]: 111%
- viability, T/C [9]: 108%
- viability, T/C [10]: 94.8%
- viability, T/C [11]: 82%
- viability, T/C [12]: 49.5%
- viability, T/C [13]: 107%
- viability, T/C [14]: 110%
- viability, T/C [15]: 124%
- viability, T/C [16]: 104%
- viability, T/C [17]: 87.1%
- viability, T/C [18]: 55.1%
- viability, T/C [19]: 101%
- viability, T/C [20]: 111%
- viability, T/C [21]: 112%
- viability, T/C [22]: 99%
- viability, T/C [23]: 85%
- viability, T/C [24]: 49.2%
- viability, T/C [25]: 71.4%
- viability, T/C [26]: 70.6%
- viability, T/C [27]: 64.5%
- viability, T/C [28]: 56.1%
- viability, T/C [29]: 49.6%
- viability, T/C [30]: 44.2%

SMILES: CCN(c1cc(-c2ccc(CN3CCOCC3)cc2)cc(C(=O)NCc2c(C)cc(C)[nH]c2=O)c1C)C1CCOCC1 + Cc1cncc(-c2nc(NCCc3c[nH]c4ccccc34)c3ncn(C(C)C)c3n2)c1
- pIC50 (second compound 0.1 µM): < 5.52
- pIC50 (second compound 0.316 µM): < 5.52
- pIC50 (second compound 1 µM): < 5.52
- pIC50 (second compound 3.16 µM): < 5.52
- pIC50 (second compound 10 µM): 6.78
- viability, T/C [31]: 96.7%
- viability, T/C [32]: 105%
- viability, T/C [33]: 104%
- viability, T/C [34]: 94.6%
- viability, T/C (second compound 0.1 µM, first compound 0.949 µM): 97.9%
- viability, T/C (second compound 0.1 µM, first compound 3 µM): 102%
- viability, T/C [35]: 121%
- viability, T/C [36]: 122%
- viability, T/C [37]: 106%
- viability, T/C [38]: 99.8%
- viability, T/C (second compound 0.316 µM, first compound 0.949 µM): 104%
- viability, T/C (second compound 0.316 µM, first compound 3 µM): 103%
- viability, T/C [39]: 99.7%
- viability, T/C [40]: 116%
- viability, T/C [41]: 108%
- viability, T/C [42]: 114%
- viability, T/C (second compound 1 µM, first compound 0.949 µM): 104%
- viability, T/C (second compound 1 µM, first compound 3 µM): 100%
- viability, T/C [43]: 105%
- viability, T/C [44]: 116%
- viability, T/C [45]: 104%
- viability, T/C [46]: 96.2%
- viability, T/C (second compound 3.16 µM, first compound 0.949 µM): 98.8%
- viability, T/C (second compound 3.16 µM, first compound 3 µM): 113%
- viability, T/C [47]: 62%
- viability, T/C [48]: 53.3%
- viability, T/C [49]: 51.6%
- viability, T/C [50]: 50.6%
- viability, T/C (second compound 10 µM, first compound 0.949 µM): 37.8%
- viability, T/C (second compound 10 µM, first compound 3 µM): 28.6%

SMILES: Nc1ncn(C2CC(O)C(CO)S2)c(=O)n1 (stereo not given) + Cc1cncc(-c2nc(NCCc3c[nH]c4ccccc34)c3ncn(C(C)C)c3n2)c1
- pIC50 (second compound 0.1 µM): < 6.52
- pIC50 (second compound 0.316 µM): < 6.52
- pIC50 (second compound 1 µM): < 6.52
- pIC50 (second compound 3.16 µM): < 6.52
- pIC50 (second compound 10 µM): < 6.52
- viability, T/C (second compound 0.1 µM, first compound 0.000949 µM): 106%
- viability, T/C (second compound 0.1 µM, first compound 0.003 µM): 95.4%
- viability, T/C [31]: 93.7%
- viability, T/C [32]: 90.4%
- viability, T/C [33]: 93.2%
- viability, T/C [34]: 82.5%
- viability, T/C (second compound 0.316 µM, first compound 0.000949 µM): 102%
- viability, T/C (second compound 0.316 µM, first compound 0.003 µM): 99.8%
- viability, T/C [35]: 101%
- viability, T/C [36]: 94.3%
- viability, T/C [37]: 88.7%
- viability, T/C [38]: 85.7%
- viability, T/C (second compound 1 µM, first compound 0.000949 µM): 106%
- viability, T/C (second compound 1 µM, first compound 0.003 µM): 111%
- viability, T/C [39]: 121%
- viability, T/C [40]: 109%
- viability, T/C [41]: 106%
- viability, T/C [42]: 103%
- viability, T/C (second compound 3.16 µM, first compound 0.000949 µM): 84.1%
- viability, T/C (second compound 3.16 µM, first compound 0.003 µM): 87.8%
- viability, T/C [43]: 93.4%
- viability, T/C [44]: 84.7%
- viability, T/C [45]: 66.5%
- viability, T/C [46]: 73%
- viability, T/C (second compound 10 µM, first compound 0.000949 µM): 65%
- viability, T/C (second compound 10 µM, first compound 0.003 µM): 50.9%
- viability, T/C [47]: 58%
- viability, T/C [48]: 44%
- viability, T/C [49]: 53%
- viability, T/C [50]: 52.7%
